Like-named read-outs stand apart in the source and are kept apart here.
Legend:
EGFR L858R/T790M = target: T1, EGFR L858R/T790M (Homo sapiens, UniProt P00533, L858R/T790M); test: Inhibition of EGFR L858R/T790M biochemical enzymatic activity (HTRF); conditions: 1 mM ATP
T1 construct: purchased Carna Bio
How it was run: (§1)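 1 mM ATP, 1 μM biotin-TK peptide, 5 mM MgCl2, 1 mM MnCl2, 0.01% CHAPS, 1 mM DTT, 0.5% DMSO; 1 h RT; EDTA stop; HTRF 665/615 nm; IC50 via 4PL.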

EGFR L858R = target: T2, EGFR L858R (Homo sapiens, UniProt P00533, L858R); test: Inhibition of EGFR L858R biochemical enzymatic activity (HTRF); conditions: 1 mM ATP
T2 construct: purchased Carna Bio
How it was run: as §1

EGFR[T790M/C797S/L858R] = target: T3, EGFR[T790M/C797S/L858R] (Homo sapiens, UniProt P00533, C797S/L858R/T790M); test: Inhibition of EGFR[T790M/C797S/L858R] biochemical enzymatic activity (HTRF); conditions: 1 mM ATP
T3 construct: purchased Carna Bio
How it was run: as §1

EGFR Exon19Del/T790M = target: T4, EGFR Exon19Del/T790M (Homo sapiens, UniProt P00533, DEL746-750/T790M); test: Inhibition of EGFR Exon19Del/T790M biochemical enzymatic activity (HTRF); conditions: 1 mM ATP
T4 construct: purchased Carna Bio
How it was run: as §1

[1] = system: Ba/F3 cells expressing EGFR mutations; test: Cell proliferation assay, Ba/F3 cells expressing EGFR mutations (CellTiter-Glo, 72 hours); format: cell-based
How it was run: (§2)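 Seed Ba/F3 at 5000 cells/well and PC-9 at 500 cells/well (10% FBS RPMI1640); incubate overnight; add compound dilution series; read a G0 plate; incubate; read G3; GI50 from best-fit curve.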

EGFR (C797S L858R) = target: T5, EGFR (C797S L858R) (Homo sapiens, UniProt P00533, C797S/L858R); test: Inhibition of EGFR (C797S L858R) biochemical enzymatic activity (HTRF); conditions: 1 mM ATP
T5 construct: purchased signalchem
How it was run: as §1

EGFR Exon19Del = target: T6, EGFR Exon19Del (Homo sapiens, UniProt P00533, DEL746-750); test: Inhibition of EGFR Exon19Del biochemical enzymatic activity (HTRF); conditions: read-out: IC50 @Del19
T6 construct: purchased Carna Bio
How it was run: as §1

PC-9 = test: Cell proliferation assay, PC-9 cells (CellTiter-Glo, 72 hours); format: cell-based; conditions: PC9 cells, read-out: GI50 PC9
How it was run: as §2

EGFR wild type = target: T7, EGFR wild type (Homo sapiens, UniProt P00533); test: Inhibition of EGFR wild type biochemical enzymatic activity (HTRF); conditions: 1 mM ATP
T7 construct: purchased Carna Bio
How it was run: as §1

EGFR (d746-750 C797S) = target: T8, EGFR (d746-750 C797S) (Homo sapiens, UniProt P00533, C797S/DEL746-750); test: Inhibition of EGFR (d746-750 C797S) biochemical enzymatic activity (HTRF); conditions: 1 mM ATP
T8 construct: purchased signalchem
How it was run: as §1

[2] = target: T9, EGFR[T790M/C797S/d746-750] (Homo sapiens, UniProt P00533, C797S/DEL746-750/T790M); test: Inhibition of EGFR[T790M/C797S/d746-750] biochemical enzymatic activity (HTRF)
T9 construct: purchased Carna Bio
How it was run: as §1

A-431 = test: Cell proliferation assay, A-431 cells (GI50, Table 6); format: cell-based
[3] = EGFR L858R-T790M, 1 h, room temperature, read-out: IC50 (nM) @L858R-T790M
[4] = 1 h, room temperature, read-out: IC50 (nM) @L858R
[5] = EGFR T790M-C797S-L858R, 1 h, room temperature, read-out: IC50 (nM) @T790M- C797S - L858R
[6] = EGFR Del19-T790M, 1 h, room temperature, read-out: IC50 (nM) @Del19-T790M
[7] = Mus musculus, BaF3, 72 h, BaF3 cells, EGFR DEL19 - C797S, read-out: GI50 DEL19 - C797S/BaF3
[8] = Mus musculus, BaF3, 72 h, BaF3 cells, EGFR DEL19 - T790-C797S, read-out: GI50 DEL19 - T790-C797S/BaF3
[9] = Mus musculus, BaF3, 72 h, BaF3 cells, EGFR L858R - C797S, read-out: GI50 L858R - C797S/BaF3
[10] = Mus musculus, BaF3, 72 h, BaF3 cells, EGFR L858R - T790-C797S, read-out: GI50 L858R - T790-C797S/BaF3
[11] = Mus musculus, BaF3, 72 h, BaF3 cells, EGFR L858R - T790M, read-out: GI50 L858R - T790M/BaF3
[12] = Mus musculus, BaF3, 72 h, BaF3 cells, EGFR L858R, read-out: GI50 L858R/BaF3
[13] = Mus musculus, BaF3, 72 h, EGFR DEL19 - T790M, read-out: GI50 DEL19 - T790M
[14] = EGFR L858-C797S, 1 h, room temperature, read-out: IC50 (nM) @L858-C797S
[15] = EGFR Del19, 1 mM ATP, 1 h, room temperature
[16] = EGFR WT, 1 h, room temperature, read-out: IC50 (nM) @WT
[17] = EGFR Del19-C797S, 1 h, room temperature, read-out: IC50 (nM) @Del19-C797S
[18] = EGFR T790M-C797S-Del19, 1 mM ATP, 1 h, room temperature, read-out: IC50 (nM) @T790M - C797S - Del19
[19] = Homo sapiens, A-431, A-431 cells
[20] = EGFR L858R/T790M, 1 h at room temperature, read-out: IC50 @L858R-T790M
[21] = 1 h at room temperature, read-out: IC50 @L858R
[22] = EGFR[T790M/C797S/L858R], 1 h at room temperature, read-out: IC50 @T790M- C797S - L858R
[23] = EGFR Exon19Del/T790M, 1 h at room temperature, read-out: IC50 @Del19-T790M
[24] = BaF3 cells, EGFR DEL19 - C797S, read-out: GI50 DEL19 - C797S/BaF3
[25] = BaF3 cells, EGFR DEL19 - T790-C797S, read-out: GI50 DEL19 - T790-C797S/BaF3
[26] = BaF3 cells, EGFR L858R - C797S, read-out: GI50 L858R - C797S/BaF3
[27] = BaF3 cells, EGFR L858R - T790-C797S, read-out: GI50 L858R - T790-C797S/BaF3
[28] = BaF3 cells, EGFR L858R - T790M, read-out: GI50 L858R - T790M/BaF3
[29] = BaF3 cells, EGFR L858R, read-out: GI50 L858R/BaF3
[30] = EGFR DEL19 - T790M, read-out: GI50 DEL19 - T790M
[31] = EGFR (C797S L858R), 1 h at room temperature, read-out: IC50 @L858-C797S
[32] = EGFR Exon19Del, 1 mM ATP, 1 h at room temperature
[33] = EGFR wild type, 1 h at room temperature, read-out: IC50 @WT
[34] = EGFR (d746-750 C797S), 1 h at room temperature, read-out: IC50 @Del19-C797S
[35] = EGFR[T790M/C797S/d746-750], 1 mM ATP, 1 h at room temperature, read-out: IC50 @T790M - C797S - Del19

T5 sequence (P00533 25-1210 C797S/L858R): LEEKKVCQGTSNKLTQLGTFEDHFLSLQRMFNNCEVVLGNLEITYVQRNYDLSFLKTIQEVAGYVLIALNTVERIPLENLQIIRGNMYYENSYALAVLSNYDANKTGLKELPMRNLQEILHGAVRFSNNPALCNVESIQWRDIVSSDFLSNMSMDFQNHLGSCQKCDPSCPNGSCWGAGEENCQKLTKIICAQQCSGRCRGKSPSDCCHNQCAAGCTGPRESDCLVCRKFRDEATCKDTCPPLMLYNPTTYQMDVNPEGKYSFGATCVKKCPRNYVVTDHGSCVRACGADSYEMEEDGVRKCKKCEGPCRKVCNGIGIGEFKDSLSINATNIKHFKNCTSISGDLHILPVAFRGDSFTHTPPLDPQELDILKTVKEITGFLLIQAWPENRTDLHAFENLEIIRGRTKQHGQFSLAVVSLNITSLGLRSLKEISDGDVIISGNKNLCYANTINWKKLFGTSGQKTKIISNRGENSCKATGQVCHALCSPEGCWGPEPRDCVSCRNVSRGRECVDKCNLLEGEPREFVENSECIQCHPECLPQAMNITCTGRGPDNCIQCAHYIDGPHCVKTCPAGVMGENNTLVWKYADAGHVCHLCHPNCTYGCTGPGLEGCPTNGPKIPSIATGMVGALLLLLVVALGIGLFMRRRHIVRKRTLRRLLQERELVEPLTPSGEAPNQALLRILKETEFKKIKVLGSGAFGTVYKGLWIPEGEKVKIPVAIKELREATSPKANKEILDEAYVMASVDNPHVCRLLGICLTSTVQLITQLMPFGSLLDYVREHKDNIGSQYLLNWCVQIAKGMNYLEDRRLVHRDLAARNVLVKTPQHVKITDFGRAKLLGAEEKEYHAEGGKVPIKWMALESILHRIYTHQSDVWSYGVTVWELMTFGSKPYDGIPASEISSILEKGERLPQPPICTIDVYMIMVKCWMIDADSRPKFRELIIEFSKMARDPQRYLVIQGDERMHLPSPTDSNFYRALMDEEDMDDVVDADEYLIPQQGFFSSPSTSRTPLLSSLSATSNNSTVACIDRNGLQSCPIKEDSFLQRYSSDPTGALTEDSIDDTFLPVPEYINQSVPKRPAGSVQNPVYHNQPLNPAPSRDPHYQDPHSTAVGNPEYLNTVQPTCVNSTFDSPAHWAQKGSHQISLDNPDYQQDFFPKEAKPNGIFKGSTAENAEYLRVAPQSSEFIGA
T1 sequence (P00533 25-1210 T790M/L858R): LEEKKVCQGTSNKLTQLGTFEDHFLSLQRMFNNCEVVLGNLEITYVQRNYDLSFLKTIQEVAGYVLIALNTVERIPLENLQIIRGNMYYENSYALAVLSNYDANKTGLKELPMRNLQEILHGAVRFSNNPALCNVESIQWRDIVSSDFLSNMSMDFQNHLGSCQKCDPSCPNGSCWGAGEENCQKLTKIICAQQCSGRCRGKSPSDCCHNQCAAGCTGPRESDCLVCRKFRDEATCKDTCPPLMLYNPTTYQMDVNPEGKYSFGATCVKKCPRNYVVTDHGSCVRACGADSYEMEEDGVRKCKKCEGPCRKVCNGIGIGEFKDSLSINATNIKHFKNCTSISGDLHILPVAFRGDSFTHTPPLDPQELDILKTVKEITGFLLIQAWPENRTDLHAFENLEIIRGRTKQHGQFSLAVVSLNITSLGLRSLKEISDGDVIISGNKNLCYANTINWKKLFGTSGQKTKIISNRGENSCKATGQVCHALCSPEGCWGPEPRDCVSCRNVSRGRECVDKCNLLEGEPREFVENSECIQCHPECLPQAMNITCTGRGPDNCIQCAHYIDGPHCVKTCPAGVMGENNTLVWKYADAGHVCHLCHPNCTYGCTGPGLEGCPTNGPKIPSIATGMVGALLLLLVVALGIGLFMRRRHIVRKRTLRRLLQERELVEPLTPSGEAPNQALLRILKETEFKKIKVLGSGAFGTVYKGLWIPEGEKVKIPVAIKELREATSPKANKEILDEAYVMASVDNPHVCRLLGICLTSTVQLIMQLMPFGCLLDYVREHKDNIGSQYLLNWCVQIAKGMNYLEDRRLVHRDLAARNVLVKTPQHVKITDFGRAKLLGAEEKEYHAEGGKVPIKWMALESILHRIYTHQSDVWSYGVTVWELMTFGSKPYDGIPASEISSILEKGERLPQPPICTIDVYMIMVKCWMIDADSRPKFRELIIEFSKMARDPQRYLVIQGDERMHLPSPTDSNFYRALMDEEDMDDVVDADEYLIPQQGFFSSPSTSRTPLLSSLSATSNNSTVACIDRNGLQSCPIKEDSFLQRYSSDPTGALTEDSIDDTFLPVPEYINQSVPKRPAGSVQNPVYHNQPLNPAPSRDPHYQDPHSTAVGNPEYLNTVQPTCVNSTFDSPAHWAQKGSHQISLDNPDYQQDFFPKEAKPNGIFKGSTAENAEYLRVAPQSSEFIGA
T4 sequence (P00533 with tags, fused parts or gaps DEL746-750/T790M limits assumed): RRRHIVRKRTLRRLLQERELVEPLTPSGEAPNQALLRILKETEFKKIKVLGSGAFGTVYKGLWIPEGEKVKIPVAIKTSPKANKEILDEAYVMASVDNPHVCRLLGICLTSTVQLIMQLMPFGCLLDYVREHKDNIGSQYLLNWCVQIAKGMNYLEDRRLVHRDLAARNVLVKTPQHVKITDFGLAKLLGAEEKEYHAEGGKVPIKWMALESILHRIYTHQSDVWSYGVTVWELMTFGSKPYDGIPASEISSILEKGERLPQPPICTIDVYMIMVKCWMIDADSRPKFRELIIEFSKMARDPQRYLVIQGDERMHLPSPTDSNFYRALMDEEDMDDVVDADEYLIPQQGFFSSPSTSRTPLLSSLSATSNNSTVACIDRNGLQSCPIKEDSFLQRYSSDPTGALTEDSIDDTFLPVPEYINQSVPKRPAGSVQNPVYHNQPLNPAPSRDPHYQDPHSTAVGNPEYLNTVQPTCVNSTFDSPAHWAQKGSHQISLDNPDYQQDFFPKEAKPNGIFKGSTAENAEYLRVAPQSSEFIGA
T8 sequence (P00533 with tags, fused parts or gaps DEL746-750/C797S limits assumed): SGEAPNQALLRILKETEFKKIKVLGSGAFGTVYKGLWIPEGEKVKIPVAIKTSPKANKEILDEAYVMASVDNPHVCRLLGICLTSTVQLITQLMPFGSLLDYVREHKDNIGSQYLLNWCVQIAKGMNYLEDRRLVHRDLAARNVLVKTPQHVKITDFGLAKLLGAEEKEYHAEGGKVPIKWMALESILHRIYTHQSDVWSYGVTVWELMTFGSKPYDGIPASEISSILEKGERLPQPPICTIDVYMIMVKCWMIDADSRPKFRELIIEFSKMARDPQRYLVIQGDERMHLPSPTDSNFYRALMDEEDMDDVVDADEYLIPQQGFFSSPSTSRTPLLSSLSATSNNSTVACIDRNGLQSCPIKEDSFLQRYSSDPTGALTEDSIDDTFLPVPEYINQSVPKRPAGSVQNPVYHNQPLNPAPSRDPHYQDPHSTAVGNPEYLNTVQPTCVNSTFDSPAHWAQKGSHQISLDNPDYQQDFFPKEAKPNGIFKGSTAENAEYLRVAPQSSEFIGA
T3 sequence (P00533 25-1210 T790M/C797S/L858R): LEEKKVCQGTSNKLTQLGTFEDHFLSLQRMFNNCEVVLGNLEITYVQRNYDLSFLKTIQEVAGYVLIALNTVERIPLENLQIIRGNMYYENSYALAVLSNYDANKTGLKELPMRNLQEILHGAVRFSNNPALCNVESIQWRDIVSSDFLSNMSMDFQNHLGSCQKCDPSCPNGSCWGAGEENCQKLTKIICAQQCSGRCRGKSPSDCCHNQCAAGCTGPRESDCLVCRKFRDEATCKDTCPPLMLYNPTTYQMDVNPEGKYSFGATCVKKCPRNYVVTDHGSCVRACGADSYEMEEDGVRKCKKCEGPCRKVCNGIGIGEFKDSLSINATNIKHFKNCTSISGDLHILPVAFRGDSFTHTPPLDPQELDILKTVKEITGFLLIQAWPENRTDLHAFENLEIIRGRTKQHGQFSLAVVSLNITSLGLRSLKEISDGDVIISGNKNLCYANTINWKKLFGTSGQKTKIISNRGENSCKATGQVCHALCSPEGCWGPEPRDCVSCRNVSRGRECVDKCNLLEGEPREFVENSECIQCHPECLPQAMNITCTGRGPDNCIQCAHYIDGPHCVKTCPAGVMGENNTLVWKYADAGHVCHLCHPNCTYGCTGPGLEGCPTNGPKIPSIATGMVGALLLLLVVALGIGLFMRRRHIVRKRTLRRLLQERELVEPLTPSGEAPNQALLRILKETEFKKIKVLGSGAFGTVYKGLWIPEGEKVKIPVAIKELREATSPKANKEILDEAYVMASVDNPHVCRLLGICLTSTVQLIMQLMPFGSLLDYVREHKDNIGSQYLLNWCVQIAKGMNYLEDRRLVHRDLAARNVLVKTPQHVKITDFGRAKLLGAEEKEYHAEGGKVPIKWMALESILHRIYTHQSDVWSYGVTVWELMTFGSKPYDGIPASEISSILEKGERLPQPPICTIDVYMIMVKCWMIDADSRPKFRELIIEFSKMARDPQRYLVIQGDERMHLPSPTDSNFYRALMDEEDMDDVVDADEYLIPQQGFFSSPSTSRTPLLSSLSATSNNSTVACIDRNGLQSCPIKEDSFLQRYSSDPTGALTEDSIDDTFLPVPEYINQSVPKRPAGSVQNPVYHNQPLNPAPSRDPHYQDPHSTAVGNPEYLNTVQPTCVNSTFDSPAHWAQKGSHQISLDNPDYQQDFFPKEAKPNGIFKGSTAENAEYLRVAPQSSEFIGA

SMILES | IC50 (EGFR L858R/T790M; [3]) | IC50 (EGFR L858R; [4]) | IC50 (EGFR[T790M/C797S/L858R]; [5]) | IC50 (EGFR Exon19Del/T790M; [6]) | GI50 [1, 7] | GI50 [1, 8] | GI50 [1, 9] | GI50 [1, 10] | GI50 [1, 11] | GI50 [1, 12] | GI50 [1, 13] | IC50 (EGFR (C797S L858R); [14]) | IC50 (EGFR Exon19Del; [15]) | GI50 (PC-9; Homo sapiens, PC-9, 72 h) | IC50 (EGFR wild type; [16]) | IC50 (EGFR (d746-750 C797S); [17]) | IC50 [2, 18] | GI50 (A-431; [19]) | IC50 (EGFR L858R/T790M; [20]) | IC50 (EGFR L858R; [21]) | other results
Cc1cc2cc(n1)-c1cnn(C)c1OCCN1CC3CCC(CC3)(C1)n1c(nc3ccc(N4CCN(C)CC4)cc31)NC2=O [Example B3, 15,21-dimethyl-5-(4-methylpiperazin-1-yl)-23-oxa-2,9,11,16,20,21,26-heptaazaheptacyclo[26.2.2.1^{1,26}.1^{13,17}.0^{2,10}.0^{3,8}.0^{18,22}]tetratriaconta-3,5,7,9,13,15,17(34),18(22),19-nonaen-12-one] | 7.2 nM | 24 nM | 11 nM | 4.3 nM | 0.0075 µM | 0.0017 µM | 0.058 µM | 0.0052 µM | 0.011 µM | 0.041 µM | 0.0025 µM | 3.1 nM | 0.007 µM | 0.052 µM | 954 nM | 36 nM | 7.3 nM | 2.02 µM |  |  | 
Cn1ncc2c1OCCN1CC3CCC(CC3)(C1)n1c(nc3cc(F)ccc31)NC(=O)c1cc-2c(=O)n(C)c1 [Example A116, 6-fluoro-15,21-dimethyl-23-oxa-2,9,11,15,20,21,26-heptaazaheptacyclo[26.2.2.1^{1,26}.1^{13,17}.0^{2,10}.0^{3,8}.0^{18,22}]tetratriaconta-3,5,7,9,13,17(34),18(22),19-octaene-12,16-dione] | > 5000 nM | > 5000 nM | > 5000 nM | 88 nM | 0.056 µM | 0.336 µM | 0.194 µM | 0.162 µM | 0.72 µM | 0.419 µM | 0.157 µM | 3700 nM | 0.464 µM | 0.256 µM | > 5000 nM | 474 nM | 168 nM | 3.44 µM |  |  | 
Cc1cc2cc(n1)-c1cnn(C)c1OCCN1CC3CCC(C3)(C1)n1c(nc3ccc(N4CCN(C5COC5)CC4)cc31)NC2=O (single isomer, unassigned) [Example B58B] |  |  |  |  |  |  |  |  |  |  |  |  |  |  |  |  |  |  | 5.9 nM | 134 nM | IC50 (EGFR[T790M/C797S/L858R]; [22]): 3.1 nM; IC50 (EGFR Exon19Del/T790M; [23]): 5.5 nM; GI50 [1, 24]: 0.002 µM; GI50 [1, 25]: 0.002 µM; GI50 [1, 26]: 0.009 µM; GI50 [1, 27]: 0.002 µM; GI50 [1, 28]: 0.002 µM; GI50 [1, 29]: 0.013 µM; GI50 [1, 30]: 0.002 µM; IC50 (EGFR (C797S L858R); [31]): 33 nM; IC50 (EGFR Exon19Del; [32]): 0.012 µM; GI50 (PC-9): 0.009 µM; IC50 (EGFR wild type; [33]): 2750 nM; IC50 (EGFR (d746-750 C797S); [34]): 4.2 nM; IC50 [2, 35]: 3.2 nM; GI50 (A-431; A-431 cells): 0.532 µM
CCN1CCN(c2ccc3nc4n(c3c2)C23CCC(CN(CCOc5c(cnn5C)-c5cc(cc(C)n5)C(=O)N4)C2)C3)CC1 (single isomer, unassigned) [Example B56B] |  |  |  |  |  |  |  |  |  |  |  |  |  |  |  |  |  | 0.426 µM | 3 nM | 26 nM | IC50 (EGFR[T790M/C797S/L858R]; [22]): 1.6 nM; IC50 (EGFR Exon19Del/T790M; [23]): 4.1 nM; GI50 [1, 24]: 0.002 µM; GI50 [1, 25]: 0.002 µM; GI50 [1, 26]: 0.005 µM; GI50 [1, 27]: 0.002 µM; GI50 [1, 28]: 0.002 µM; GI50 [1, 29]: 0.012 µM; GI50 [1, 30]: 0.007 µM; IC50 (EGFR (C797S L858R); [31]): 5.1 nM; IC50 (EGFR Exon19Del; [32]): 0.0044 µM; GI50 (PC-9): 0.01 µM; IC50 (EGFR wild type; [33]): 392 nM; IC50 (EGFR (d746-750 C797S); [34]): 1.7 nM; IC50 [2, 35]: 2.3 nM
Cn1ncc2c1OCCN1CC3CCC(C3)(C1)n1c(nc3cc(F)ccc31)NC(=O)c1cc-2c(=O)n(C)c1 (stereo not drawn) [Example A117B, 6-fluoro-15,21-dimethyl-23-oxa-2,9,11,15,20,21,26-heptaazaheptacyclo[24.4.1.1^{1,28}.1^{13,17}.0^{2,10}.0^{3,8}.0^{18,22}]tritriaconta-3,5,7,9,13,17(33),18(22),19-octaene-12,16-dione] | 1910 nM | 463 nM | 280 nM | 3.3 nM | 0.0043 µM | 0.02 µM | 0.038 µM | 0.032 µM | 0.08 µM | 0.016 µM | 0.012 µM | 23 nM | 0.023 µM | 0.057 µM | > 5000 nM | 8.1 nM | 2.5 nM | 1.51 µM |  |  | 

Source: patent US20260365670A1, “EGFR INHIBITORS AND USES THEREOF” (DIZAL (JIANGSU) PHARMACEUTICAL CO., LTD., priority 2022, published 2026)
